For eight molecules, IC50 results are on record in BindingDB's records for doi:10.1016/j.bmc.2012.05.068 (Duquesne University, 2012).

For test [1], the target named is Dihydroorotate dehydrogenase (quinone), mitochondrial (Homo sapiens, UniProt Q02127). The test is described as follows: Inhibition of human DHODH.
Test [2] has as its target T1, Bifunctional dihydrofolate reductase-thymidylate synthase (Toxoplasma gondii, UniProt Q07422).
T1 sequence (Q07422 whole entry): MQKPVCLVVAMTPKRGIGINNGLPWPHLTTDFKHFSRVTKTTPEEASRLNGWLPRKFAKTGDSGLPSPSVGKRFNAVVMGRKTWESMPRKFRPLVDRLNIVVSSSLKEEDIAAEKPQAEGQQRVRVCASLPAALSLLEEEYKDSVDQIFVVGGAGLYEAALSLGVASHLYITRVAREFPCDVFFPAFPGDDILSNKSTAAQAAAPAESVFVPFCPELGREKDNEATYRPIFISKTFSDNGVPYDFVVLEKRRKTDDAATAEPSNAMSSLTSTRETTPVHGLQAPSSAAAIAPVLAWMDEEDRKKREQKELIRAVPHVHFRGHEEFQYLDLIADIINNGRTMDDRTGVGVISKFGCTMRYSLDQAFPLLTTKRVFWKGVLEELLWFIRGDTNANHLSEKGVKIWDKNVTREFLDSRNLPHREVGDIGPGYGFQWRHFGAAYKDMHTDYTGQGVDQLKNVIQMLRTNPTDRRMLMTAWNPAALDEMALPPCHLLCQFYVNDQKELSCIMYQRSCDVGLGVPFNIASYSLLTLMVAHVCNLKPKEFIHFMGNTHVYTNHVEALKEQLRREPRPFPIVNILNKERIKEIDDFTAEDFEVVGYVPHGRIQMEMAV
As to the kind of experiment: Inhibition of Toxoplasma gondii thymidylate synthase.

Test [3] has as its target T1, Bifunctional dihydrofolate reductase-thymidylate synthase. As to the kind of experiment: Inhibition of Toxoplasma gondii DHFR.
The target of test [4] is Thymidylate synthase (Homo sapiens, UniProt P04818). The test is described as follows: Inhibition of human thymidylate synthase.
Chain of Thymidylate synthase (P04818 whole entry): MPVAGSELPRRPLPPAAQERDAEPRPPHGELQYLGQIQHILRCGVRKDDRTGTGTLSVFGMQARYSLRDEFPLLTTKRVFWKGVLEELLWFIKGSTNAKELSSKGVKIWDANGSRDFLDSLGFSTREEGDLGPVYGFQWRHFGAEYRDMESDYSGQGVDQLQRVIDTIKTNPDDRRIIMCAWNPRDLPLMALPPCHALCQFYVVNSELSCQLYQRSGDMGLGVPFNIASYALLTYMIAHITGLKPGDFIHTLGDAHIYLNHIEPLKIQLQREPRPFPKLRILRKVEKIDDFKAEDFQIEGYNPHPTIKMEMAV

Chain of Dihydroorotate dehydrogenase (quinone), mitochondrial (Q02127 whole entry): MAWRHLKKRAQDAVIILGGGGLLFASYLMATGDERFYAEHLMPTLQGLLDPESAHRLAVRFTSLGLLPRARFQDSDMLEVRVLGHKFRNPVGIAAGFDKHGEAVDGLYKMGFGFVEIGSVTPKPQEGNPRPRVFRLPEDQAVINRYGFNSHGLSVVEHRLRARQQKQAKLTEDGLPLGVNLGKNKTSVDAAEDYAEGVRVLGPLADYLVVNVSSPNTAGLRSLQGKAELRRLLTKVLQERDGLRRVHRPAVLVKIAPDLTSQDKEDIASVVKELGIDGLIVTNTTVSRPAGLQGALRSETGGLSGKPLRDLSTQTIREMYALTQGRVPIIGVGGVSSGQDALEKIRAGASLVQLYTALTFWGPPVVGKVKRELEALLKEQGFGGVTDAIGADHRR

For the molecule `Nc1nc2cc3ccccc3c-2c(Nc2ccccc2)[nH]1`, in test [1], the IC50 (in general, the concentration that gives 50% inhibition) was > 200 µM.

As to `Nc1nc2cc3ccccc3c-2c(Nc2cccc(F)c2)[nH]1`, the IC50 in test [1] was > 200 µM.

Regarding `Nc1nc2cc3ccccc3c-2c(Nc2ccc(Cl)cc2)[nH]1`, the IC50 in test [2] is > 14 µM; in test [1] it was > 200 µM; in test [3] it was > 16 µM; in test [4], > 14 µM.

As to `CC(C)c1ccc(Nc2[nH]c(N)nc3cc4ccccc4c2-3)cc1`, the IC50 in test [2] is > 14 µM; in test [3], > 16 µM; in test [4], > 14 µM.

Regarding `Nc1nc2cc3ccccc3c-2c(Nc2ccc(Cl)cc2F)[nH]1`, the IC50 in test [2] is > 13 µM; in test [1], > 200 µM; in test [3], > 16 µM; in test [4] it was > 13 µM.

Take `COc1cccc(Nc2[nH]c(N)nc3cc4ccccc4c2-3)c1`: the IC50 in test [1] is > 200 µM.

As for `Nc1nc2cc3ccccc3c-2c(Nc2ccc(F)c(Cl)c2)[nH]1`, the IC50 in test [2] was > 13 µM; in test [3], > 16 µM; in test [4], > 13 µM.

Turning to `Nc1nc2cc3ccccc3c-2c(Nc2cccc(Br)c2)[nH]1`, the results for the IC50 in test [1] and in test [3] were > 200 µM and > 14 µM, respectively.
